Measurements as given in paper PMC5570892, “Indole-based perenosins as highly potent HCl transporters and potential anti-cancer agents” (Scientific Reports, 2017).

Assays:
[1] = pKa by UV spectrophotometric titration in aqueous solution; format: physicochemical; settings: for pK a (aq): apparent pKa, hexafluorophosphate buffered DMSO:water 50:50, 25 °C; for solubility in the pKa titration solvent system: hexafluorophosphate buffered DMSO:water 50:50
Description: (§1) The pK a at which protonation of the imine (N2, see Fig. 3) occurs gives an indication of the optimum pH for the binding of chloride anions. This is an important consideration in anti-cancer drug development as the external pH environment of cancer cells is mildly acidic (pH 6.7)[53] compared to that of healthy cells (pH 7.2–7.5)[54]. This can be exploited to selectively target cancer cells and potentially reduce the cytotoxic effects of perenosins when used as therapeutics for anti-cancer treatment. The apparent pK a values, shown in Table 1, for compounds 1d and 2–8 were determined both in aqueous solution (pK a (aq)) and in the presence of a 1-palmitoyl-2-oleoyl-sn-glycero-3-phosphocholine (POPC) lipid bilayer membrane (pK a (mem)). UV spectrophotometric titrations were conducted by varying the pH condition from neutral to acidic with the titration of either HPF6 or HCl.
The apparent pK a values were derived from nonlinear curve fitting of the absorbance plotted against the pH; global fitting of both wavelengths corresponding to the neutral and protonated species were performed whenever feasible, see Supplementary Information for details.
S6.1 pKa Studies in Aqueous Solution pKa values for compounds 1d, 2, 4, 5, 7 and 8 were determined experimentally in aqueous solution […]
in absorbance bet ween the UV-Vis spectra of the protonated and the neutral species. The titration solution was made up with a hexafluorophosphate buffered (100 mM) DMSO:water 50:50 solution (4990 μL) and a transporter solution (10 μL, 25 mM), and the pH of this was recorded. The UV-Vis spectra were recorded on an Agilent Cary 100 UV-Vis spectrophotometer at 25 °C with baseline correction, using standard 10 mm quartz glass cells. A baseline absorbance was measured on a hexafluorophosphate buffered (100 mM) DMSO:water 50:50 solution, and then the absorbance of the titration solution was measured. The pH of the solution was decreased stepwise by adding small aliquots of hexafluorophosphoric acid ([…]). After each pH decrease an absorbance measurement was taken. The absorbance at a certain wavelength (noted for each compound below) was plotted against the pH and then fitted using a dose response curve in OriginPro 9.1, where the point of inflection corresponds to the apparent pKa in aqueous solution.
Figure S38. Absorbance spectra taken over the course of a pH-spectrophotometric titration of 1d (25 mM) in a hexafluorophosphate buffered (100 mM) DMSO:water 50:50 mixture. Inset: Abs vs. pH with dose response curve fit and the point of inflection corresponding to the pKa value.
(§2) (1 picture or pasted object on this page, not shown here)

[2] = pKa by UV spectrophotometric titration in POPC vesicles; format: physicochemical; settings: apparent pKa in presence of POPC lipid bilayer, NaCl 500 mM, phosphate 5 mM
Description: as §1
The apparent pK a values were derived from nonlinear curve fitting of the absorbance plotted against the pH; global fitting of both wavelengths corresponding to the neutral and protonated species were performed whenever feasible, see Supplementary Information for details. […]
All spectra obtained have the increasing and decreasing peaks marked with an arrow.
Isosbestic points were not observed in the titrations due to break down of the imine in acidic conditions. The breakdown product is shown, for all compounds, as the increasing absorbance peak […]
S6.2 pKa Studies in Vesicles pKa values for compounds 1d, 2, 4, 5, 7 and 8 were determined experimentally in vesicles through a […]
absorbance between the UV -Vis spectra of the protonated and the neutral species. Unilamellar vesicles were prepared using previously reported literature procedures 7-9. A lipid film of POPC (1 - palmitoyl-2-oleoyl-sn-glycero-3-phosphocholine) was prepared from a chloroform solution under reduced pressure and then dried under vacuum for 4 or more hours. The lipid film was rehydrated by vortexing with a solution of phosphate buffered (5 mM) sodium chloride (500 mM). The lipid suspension was then subjected to 9 freeze-thaw cycles and left to rest at room temperature for 30 minutes. After this, the suspension was extruded 25 times through a 400 nm polycarbonate membrane resulting in unilamellar vesicles of a mean diameter of 400 nm. The titration solution was made up to a standard volume (2500 μL, 1 mM) with the lipid (615 μL), phosphate buffered (5 mM) sodium chloride (500 mM) solution ([…]) and a transporter solution (10 μL, 25 mM), and the pH of this was noted . The UV-Vis spectra were recorded on an Agilent Cary 100 UV-Vis spectrophotometer at 25 °C with baseline correction, using standard 10 mm quartz glass cells. A baseline absorbance was measured using a solution of lipid, phosphate buffered (5 mM) sodium chloride (500 mM) and DMSO, and then the absorbance of the titration solution was measured. The pH of the solution was decreased stepwise by adding small aliquots of hydrochloric acid (0.1 mM).
as §2
After each pH decrease an absorbance measurement was taken. The absorbance at a certain wavelength (shown for each compound below) was plotted against the pH and then fitted using a dose response curve in OriginPro 9.1, where the point of inflection corresponds to the apparent pKa […]
Figure S44. Absorbance spectra taken over the course of a pH-spectrophotometric titration of 1d (25 mM) in a sodium chloride (500 mM) phosphate buffered (5 mM) lipid solution (1 mM). Inset: Abs vs. pH with dose response curve fit and the point of inflection corresponding to the p Ka value.
Figure S45. Absorbance spectra taken over the course of a pH -spectrophotometric titration of 2 (25 […]
pH with dose response curve fit with the point o f inflection corresponding to the p Ka value. […]

Row | SMILES | pK a (aq) [1] | pK a (mem) [2] | solubility in the pKa titration solvent system [1]
1 | CCCCCc1cc2cc(C)cc(/N=C/c3[nH]c(C)cc3C)c2[nH]1 [Perenosin 2] | 6.08 | 5.85 | 
2 | CCCCCc1cc2cc(C)cc(/N=C/c3[nH]c4ccccc4c3C)c2[nH]1 [Perenosin 8] | 6.28 | 5.62 | 
3 | CCCc1cc2cc(C)cc(/N=C/c3[nH]c(C)cc3C)c2[nH]1 [Perenosin 4] | 6.78 | 6.12 | 
4 | CCCCCc1cc(/N=C/c2[nH]c3ccccc3c2C)c2[nH]ccc2c1 [Perenosin 7] | 5.51 | 5.07 | 
5 | CCCCCc1cc2cc(C(F)(F)F)cc(/N=C/c3[nH]c(C)cc3C)c2[nH]1 [Perenosin 3] |  |  | precipitation was observed
6 | CCCCCc1cc2cc(C)cc(/N=C/c3[nH]c(C)c(CCCCC)c3C)c2[nH]1 [Perenosin 6] |  |  | precipitation was observed
7 | CCCCCc1cc(/N=C/c2[nH]c(C)cc2C)c2[nH]ccc2c1 [Perenosin 1d] | 6.35 | 5.42 | 
8 | CCCCCc1c(C)[nH]c(/C=N/c2cc(C)cc3cc[nH]c23)c1C [Perenosin 5] | 6.44 | 5.81 | 
